# Measured values reported in US20250281621A1, “GPC3 APTAMERS AND VARIANTS AND USE THEREOF” (Guardian Therapeutics, LLC, priority 2020, published 2025).
# Where a name gives a salt, the structure may show the parent alone. Read-outs that look alike come from different tables or passages of the source.
# B1: GRX958 (ssRNA)
# RNA: GACUAGAUCGGGUUGCUACCCAAGCUCCGGUUCAGAUCGAUGGAGGAUCUAGUC
# modifications: fully 2'-OMe
# B2: GRX51 (CpG7909-GRX49 fusion) (mixed)
# mixed: TCGTCGTTTTGTCGTTTTGTCGTTCGUCAUCGGGUUGCUACCCAAGGCCAGGAGGCGAUGACG
# modifications: PS DNA CpG7909 portion, 2'-OMe aptamer portion
# B3: GGGAGACAAGAATAAAGCGAGTTTGAAGCCATTACCGGGTTGCTACCCAAGGACAAGAGTCGATGATGCTTAGCTAG (nucleic acid)
# chain: GGGAGACAAGAATAAAGCGAGTTTGAAGCCATTACCGGGTTGCTACCCAAGGACAAGAGTCGATGATGCTTAGCTAG
# modifications: listed as DNA, chemistry not fully specified
# notes: 12
# Assays:
# Hep3B xenograft [1] = details: 30 mg/kg, oral, QD 28 days
# GPC3 [2] = biological target: T1, GPC3 (Homo sapiens, UniProt P51654); experiment: GPC3 binding via flow cytometry using GPC3+ HEK293 cells; design: expressed in transfected cells; host or cells: engineered HEK293 cells overexpressing GPC3; details: for GPC3 binding activity (MFI): GPC3^+ HEK293 cells; for Kd: flow cytometry using GPC3+ HEK293 cells
# Method: (§1) Two independent SELEX selections were carried to select clones that specifically bind to GPC3. Seven to nine rounds of nitrocellullose filter SELEX (Jhaveri et al., In vitro selection of RNA aptamers to a protein target by filter immobilization. Curr Protoc Nucleic Acid Chem. 2001, Chapter 9: Unit 9.3. doi: 10.1002/0471142700.nc0903s00. PMID: 18428881) were preformed using recombinant GPC3 protein. DNA clones from the final rounds of SELEX were sent for next generation sequencing and the data were analyzed for abundance. The highest abundant sequences (clones) were made via chemical synthesis and used in screening. The clones were screened for GPC3 binding via flow cytometry using engineered HEK293 cells overexpressing GPC3 (GPC3+ HEK293).
# Additional variants surrounding the core motif were made in which stem 2 (as depicted in FIG. 1) is extended by 1 or 2 additional base pairs (GRX1187 and GRX2101 respectively) or replaced with an alternative stem and loop sequence (GRX958). Additionally, a construct was designed in which stem 2 is closed with a 4 base loop and stem 1 is open creating a new 5′ and 3′ end, GRX2102. […] (Table 7)
# GPC3^− HEK293 cells = experiment: Flow cytometry binding control with GPC3− HEK293 cells
# Method: as §1
# (§2) Binding of aptamer variants to GPC3 was tested with melting curve analysis (thermofluorimetric analysis). The control of experiment was carried out similarly with GPC3^− HEK293 cells.
# [3] = Melting curve analysis (thermofluorimetric analysis); format: physicochemical; details: compared to original clone F14, #Min4 and #Min5
# Method: as §2
# GPC3 [4] = biological target: T1, GPC3; experiment: Binding kinetics of top minimers (Ka, Kd, KD)
# From the text: (§3) The best minimer, GRX46, as well as combinations of variants with top activities were selected for further evaluation (Table 6).
# GPC3 [5] = biological target: T1, GPC3; experiment: Binding activity of minimers incl. refolding and freeze/thaw tests
# From the text: When the lineal GRX8 sequence is refolded, the binding activity of GRX8 improves.
# as §3
# [6] = biological target: T2, endogenously expressed GPC3 (Homo sapiens, UniProt P51654); experiment: Binding to cancer cells endogenously expressing GPC3 (Hep3B, HepG2, NCI-H446, Huh7); details: data not shown; for need of refolding for maximal activity: binding to Hep3B cells
# T2 construct: endogenously expressed GPC3 on different cancer cells; endogenous in cells; host or cells: Hep3B, HepG2, NCI-H446, Huh7
# From the text: Human hepatocellular Carcinoma cells HepG2 and Hep 3B overexpressing GPC3 were used to test the affinity of the selected positive clones. The binding studies indicate that several selected aptamer candidates (Table 3) from both libraries can bind human hepatocellular Carcinoma cells with high affinity.
# A pool of partial randomization sequences from GRX8 was created and selected by cell-SELEX using GPC3^+ HEK293 cells. Those variants comprise various changes to the structural elements of GRX8, including changes to the external loop, stack, helix, hairpin loop and stem, etc. The clones were further screened with Hep3B cells and minimized based on original structure. The minimer #Min9 was further randomly mutagenized for sequence changes that can improve the binding affinity to GPC3. Another minimer variant (ID No.: GRX46)
# with increased activity was further tested.
# Hep3B xenograft [7] = experiment: GRX26 in Hep3B xenograft mouse model; details: 28 Days; for Relative tumor volume growth (Day 28): vehicle = 1.00
# Method: (SEQ ID NO.: 32) (ID NO. #GRX26). GRX26 was tested in Hep3B xenograft mouse model for its activity in vivo (Table 8).
# Hep3B xenograft [8] = system: Hep3B xenograft
# Hep3B xenograft [9] = system: Hep3B xenograft; remark: listed apart in the source
# Glypican-3 (GPC3) [10] = biological target: T3, Glypican-3 (GPC3) (UniProt P51654;P51654 P51654:25-358,P51654:359-554); experiment: flow; GPC3+ HEK293 cells; details: tags: overexpressed in engineered HEK293 cells (GPC3+ HEK293)
# Glypican-3 (GPC3) [11] = biological target: T3, Glypican-3 (GPC3); experiment: assay and GPC3 source not stated; fusion does not affect GPC3 binding; details: tags: recombinant GPC3 used for SELEX; source inferred for kinetic assay
# [12] = 5 mg/kg, IP, QD/7Days, vehicle = 1.00
molecule,measurement,setting,value
CNC(=O)c1cc(Oc2ccc(NC(=O)Nc3ccc(Cl)c(C(F)(F)F)c3)cc2)ccn1 [Sorafenib Tosylate],% of body weight loss (Day 28),Hep3B xenograft [1],9.33%
"AAGCATTACCGGGTTGCTACCCAAGGACAAGAGTCGATGATGCTT (listed as DNA, chemistry not fully specified) [Min2, 27]",binding activity to GPC3^+ HEK293 cells compared to full sequence of clone F14,GPC3 [2],significantly increased
same,GPC3 binding activity (MFI),GPC3 [2],16652
same,GPC3 binding activity (MFI),GPC3^− HEK293 cells,720
"AAGCCATTACCGGGTTGCTACCCAAGGACAAGAGTCGATGATGCTT (listed as DNA, chemistry not fully specified) [Min1, 26]",binding activity to GPC3^+ HEK293 cells compared to full sequence of clone F14,GPC3 [2],significantly increased
same,GPC3 binding activity (MFI),GPC3 [2],11403
same,GPC3 binding activity (MFI),GPC3^− HEK293 cells,579
"AAGCCATTACCGGGTTGCTACCCGAGGACAAGAGTCGATGATGCTT (listed as DNA, chemistry not fully specified) [Min3, 28]",GPC3 binding activity (MFI),GPC3 [2],377
same,GPC3 binding activity (MFI),GPC3^− HEK293 cells,444
"AAGCCATTATCGGGTTGCTACCCAAGGACAAGAGTCGATGATGCTT (listed as DNA, chemistry not fully specified) [Min4, 29]",binding activity to GPC3^+ HEK293 cells compared to full sequence of clone F14,GPC3 [2],significantly increased
same,GPC3 binding activity (MFI),GPC3 [2],23261
same,GPC3 binding activity (MFI),GPC3^− HEK293 cells,1072
"CATTATCGGGTTGCTACCCAAGGACAAGAGTCGATGATG (listed as DNA, chemistry not fully specified) [Min5, 30]",binding activity to GPC3^+ HEK293 cells compared to full sequence of clone F14,GPC3 [2],significantly increased
same,GPC3 binding activity (MFI),GPC3 [2],19484
same,GPC3 binding activity (MFI),GPC3^− HEK293 cells,946
"CATTATCGGGTTGCTACCCGAGGACAAGAGTCGATGATG (listed as DNA, chemistry not fully specified) [Min6, 31]",GPC3 binding activity (MFI),GPC3 [2],3619
same,GPC3 binding activity (MFI),GPC3^− HEK293 cells,507
"CGGGAGUCCUAGGAAGGACGGGUUGCUACCCAAGUCCCG (listed as RNA, chemistry not fully specified) [GRX2102, 79]",Kd,GPC3 [2],26.9 nM
"CGTCATCGGGTTGCTACCCAAGGACAAGAGTCGATGACG (listed as DNA, chemistry not fully specified) [Min9, 32]",thermal stability,[3],thermally more stable
"CGTCGTCGGGTTGCTACCCAAGGACAAGAGTCGACGACG (listed as DNA, chemistry not fully specified) [Min9.2, 33]",thermal stability,[3],thermally more stable
"CGUCAUCGGGUUGCUACCCAAGGACAAGAGUCGAUGACG (RNA aptamer, any chemical modification not given here, further chemistry not given here) [GRX8]",Ka,GPC3 [4],61900 M⁻¹ s⁻¹
same,binding activity when the lineal sequence is refolded,GPC3 [5],improves
same,binding affinity to exogenously expressed GPC3,GPC3 [5]; FIG. 2,high binding affinity
same,stability of activity in freeze/thaw tests,GPC3 [5]; frequent freeze/thaw,stable and not affected by the frequent freeze/thaw tests
"CGUCAUCGGGUUGCUACCCAAGGCACCAGGAGGUGCGAUGACG (listed as RNA, chemistry not given here) [GRX2101, 78]",Kd,GPC3 [2],29.3 nM
"CGUCAUCGGGUUGCUACCCAAGGCCAGGAGGCGAUGACG (listed as RNA, chemistry not fully specified) [GRX49, 25]",Ka,GPC3 [4],199000 M⁻¹ s⁻¹
same,binding to endogenously expressed GPC3 on cancer cells,"[6]; Hep3B, HepG2, NCI-H446, Huh7",selectively bind
same,need of refolding for maximal activity,[6],do not require refolding for maximal activity
same,Kd,GPC3 [2],9 nM
"CGUCAUCGGGUUGCUACCCAAGGCCCAGGAGGGCGAUGACG (listed as RNA, chemistry not given here) [GRX1187, 77]",Kd,GPC3 [2],64.2 nM
"CGUCAUCGGGUUGCUACCCAAGGUCAAGAGACGAUGACG (listed as RNA, chemistry not fully specified) [GRX46]",Ka,GPC3 [4],55400 M⁻¹ s⁻¹
same,binding activity and refolding behavior relative to GRX8,GPC3 [5]; data not shown,"similar, enhanced binding activity"
"CGUCAUCGGGUUGCUACCCAAGGUCAGGAGACGAUGACG (listed as RNA, chemistry not given here) [GRX8 with triple]",Ka,GPC3 [4],112000 M⁻¹ s⁻¹
same,need of refolding for maximal activity,[6],do not require refolding for maximal activity
"CGUCAUCGGGUUGCUACCCAAGGUCAGGUGACGAUGACG (listed as RNA, chemistry not given here) [GRX8 with QUAD6]",Ka,GPC3 [4],201000 M⁻¹ s⁻¹
same,need of refolding for maximal activity,[6],do not require refolding for maximal activity
DM1-CGTCATCGGGTTGCTACCCAAGGACAAGAGTCGATGACG [GRX26],% of body weight loss,Hep3B xenograft [7]; 2.5 mg/kg,10.67%
same,Relative tumor volume growth (Day 28),Hep3B xenograft [7]; 2.5 mg/kg,0.69
same,% of body weight loss,"Hep3B xenograft [7]; 10 mg/kg, IP/QD",14.86%
same,Relative tumor volume growth (Day 28),"Hep3B xenograft [7]; 10 mg/kg, IP/QD",0.46
"GACUAGAUCGGGUUGCUACCCAAGCUCCGGUUCAGAUCGAUGGAGGAUCUAGUC (listed as RNA, chemistry not fully specified) [GRX958, 76]",Kd,GPC3 [2],33.1 nM
"GGCATCGGGTTGCTACCCAAGGACAAGAGTCGATGCC (listed as DNA, chemistry not fully specified) [Min11, 34]",thermal stability,[3],thermally more stable
Keytruda: the PD-1R inhibitor Keytruda,% of body weight loss,Hep3B xenograft [8]; 10 mg/kg,3.66%
same,reduction of tumor size,"Hep3B xenograft [8]; 10 mg/kg once every 3 days i.p., 11 days",18%
same,Relative tumor volume growth (Day 11),"Hep3B xenograft [8]; 10 mg/kg, vehicle = 1.00",0.82
TCGTCGTTTTGTCGTTTTGTCGTT [CpG],Relative tumor volume growth (Day 7),Hep3B xenograft [9]; [12],0.57
same,Relative tumor volume growth (Day 18),Hep3B xenograft [9]; [12],0.47
same,final immune: tumor cell ratio relative to the vehicle control,Hep3B xenograft [9]; 7-day on/7-day off daily dosing schedule,1.51±0.95
B1,Kd,Glypican-3 (GPC3) [10]; stem 2 replaced with alternative stem and loop,33.1 nM
B2,IC50,Glypican-3 (GPC3) [11],32.7 nM
"CGUCAUCGGGUUGCUACCCAAGGCACCAGGAGGUGCGAUGACG (ssRNA, fully 2'-OMe) [GRX2101]",Kd,Glypican-3 (GPC3) [10]; stem 2 extended by 2 bp,29.3 nM
"CGUCAUCGGGUUGCUACCCAAGGCCCAGGAGGGCGAUGACG (ssRNA, fully 2'-OMe) [GRX1187]",Kd,Glypican-3 (GPC3) [10]; stem 2 extended by 1 bp,64.2 nM
"CGGGAGUCCUAGGAAGGACGGGUUGCUACCCAAGUCCCG (ssRNA, fully 2'-OMe) [GRX2102]",Kd,"Glypican-3 (GPC3) [10]; stem 2 closed with 4-base loop, stem 1 open (new 5' and 3' ends)",26.9 nM
B3,GPC3 binding activity (MFI),GPC3 [2],5050
same,GPC3 binding activity (MFI),GPC3^− HEK293 cells,1040
